Reference: PubChem BioAssay (NCI)
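How tested: cells in 96-well plates exposed to compound for 48 hours at five concentrations. Here, GI50 denotes the concentration required for 50% inhibition of growth. At the TGI there is no net growth.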

Columns and labels:
Assay in all cases: NCI anticancer screen, dose series, 48 h
[1] = system: 786-0 renal
[2] = system: A498 renal
[3] = system: A549 NSCLC
[4] = system: ACHN renal
[5] = system: CCRF-CEM leukemia
[6] = system: COLO 205 colon
[7] = system: DLD-1 colon
[8] = system: EKVX NSCLC
[9] = system: HCC-2998 colon
[10] = system: HCT-116 colon
[11] = system: HCT-15 colon
[12] = system: HL-60(TB) leukemia
[13] = system: HOP-18 NSCLC
[14] = system: HOP-62 NSCLC
[15] = system: HOP-92 NSCLC
[16] = system: HT29 colon
[17] = system: IGROV1 ovarian
[18] = system: K-562 leukemia
[19] = system: KM12 colon
[20] = system: KM20L2 colon
[21] = system: LOX IMVI melanoma
[22] = system: LXFL 529 NSCLC
[23] = system: M14 melanoma
[24] = system: MALME-3M melanoma
[25] = system: MOLT-4 leukemia
[26] = system: NCI-H226 lung
[27] = system: NCI-H23 lung
[28] = system: NCI-H460 lung
[29] = system: NCI-H522 lung
[30] = system: OVCAR-3 ovarian
[31] = system: OVCAR-5 ovarian
[32] = system: OVCAR-8 ovarian
[33] = system: RPMI-8226 leukemia
[34] = system: RXF 393 renal
[35] = system: SF-268 CNS
[36] = system: SF-295 CNS
[37] = system: SF-539 CNS
[38] = system: SK-MEL-2 melanoma
[39] = system: SK-MEL-28 melanoma
[40] = system: SK-MEL-5 melanoma
[41] = system: SK-OV-3 ovarian
[42] = system: SN12C renal
[43] = system: SNB-19 CNS
[44] = system: SNB-75 CNS
[45] = system: SR leukemia
[46] = system: SW-620 colon
[47] = system: TK-10 renal
[48] = system: U251 CNS
[49] = system: UACC-257 melanoma
[50] = system: UACC-62 melanoma
[51] = system: UO-31 renal
[52] = system: CAKI-1 renal
[53] = system: DMS 114 small cell lung
[54] = system: DMS 273 small cell lung
[55] = system: M19-MEL melanoma
[56] = system: OVCAR-4 ovarian
[57] = system: SNB-78 CNS

N.N.NCCCCCN.O=C([O-])CC(=O)[O-].O=C([O-])CC(=O)[O-].[Pt+4].[Pt+4]
GI50 [1]: > 100 µM | TGI [1]: > 100 µM | GI50 [2]: > 100 µM | TGI [2]: > 100 µM | GI50 [3]: > 100 µM | TGI [3]: > 100 µM | GI50 [4]: 66.6 µM | TGI [4]: > 100 µM | GI50 [5]: 34 µM | TGI [5]: > 100 µM | GI50 [6]: > 100 µM | TGI [6]: > 100 µM | GI50 [7]: > 100 µM | TGI [7]: > 100 µM | GI50 [8]: > 100 µM | TGI [8]: > 100 µM | GI50 [9]: > 100 µM | TGI [9]: > 100 µM | GI50 [10]: > 100 µM | TGI [10]: > 100 µM | GI50 [11]: > 100 µM | TGI [11]: > 100 µM | GI50 [12]: 39.6 µM | TGI [12]: > 100 µM | GI50 [13]: > 100 µM | TGI [13]: > 100 µM | GI50 [14]: 43 µM | TGI [14]: > 100 µM | GI50 [15]: > 100 µM | TGI [15]: > 100 µM | GI50 [16]: > 100 µM | TGI [16]: > 100 µM | GI50 [17]: > 100 µM | TGI [17]: > 100 µM | GI50 [18]: > 100 µM | TGI [18]: > 100 µM | GI50 [19]: > 100 µM | TGI [19]: > 100 µM | GI50 [20]: > 100 µM | TGI [20]: > 100 µM | GI50 [21]: > 100 µM | TGI [21]: > 100 µM | GI50 [22]: > 100 µM | TGI [22]: > 100 µM | GI50 [23]: > 100 µM | TGI [23]: > 100 µM | GI50 [24]: > 100 µM | TGI [24]: > 100 µM | GI50 [25]: 65.5 µM | TGI [25]: > 100 µM | GI50 [26]: > 100 µM | TGI [26]: > 100 µM | GI50 [27]: 98.3 µM | TGI [27]: > 100 µM | GI50 [28]: 17.4 µM | TGI [28]: > 100 µM | GI50 [29]: > 100 µM | TGI [29]: > 100 µM | GI50 [30]: > 100 µM | TGI [30]: > 100 µM | GI50 [31]: > 100 µM | TGI [31]: > 100 µM | GI50 [32]: > 100 µM | TGI [32]: > 100 µM | GI50 [33]: > 100 µM | TGI [33]: > 100 µM | GI50 [34]: > 100 µM | TGI [34]: > 100 µM | GI50 [35]: 71.4 µM | TGI [35]: > 100 µM | GI50 [36]: 73.1 µM | TGI [36]: > 100 µM | GI50 [37]: 77.4 µM | TGI [37]: > 100 µM | GI50 [38]: > 100 µM | TGI [38]: > 100 µM | GI50 [39]: > 100 µM | TGI [39]: > 100 µM | GI50 [40]: > 100 µM | TGI [40]: > 100 µM | GI50 [41]: > 100 µM | TGI [41]: > 100 µM | GI50 [42]: 45.6 µM | TGI [42]: > 100 µM | GI50 [43]: > 100 µM | TGI [43]: > 100 µM | GI50 [44]: > 100 µM | TGI [44]: > 100 µM | GI50 [45]: 58.6 µM | TGI [45]: > 100 µM | GI50 [46]: > 100 µM | TGI [46]: > 100 µM | GI50 [47]: > 100 µM | TGI [47]: > 100 µM | GI50 [48]: > 100 µM | TGI [48]: > 100 µM | GI50 [49]: > 100 µM | TGI [49]: > 100 µM | GI50 [50]: 18.7 µM | TGI [50]: > 100 µM | GI50 [51]: > 100 µM | TGI [51]: > 100 µM

CC(CCC(=O)O)c1ccc(Br)cc1 (configuration not stated)
TGI [1]: > 100 µM | TGI [3]: > 100 µM | TGI [4]: > 100 µM | TGI [52]: > 100 µM | TGI [5]: > 100 µM | TGI [6]: > 100 µM | TGI [7]: > 100 µM | TGI [53]: > 100 µM | TGI [54]: > 100 µM | TGI [8]: > 100 µM | TGI [9]: > 100 µM | TGI [10]: > 100 µM | TGI [11]: > 100 µM | TGI [12]: > 100 µM | TGI [13]: > 100 µM | TGI [14]: > 100 µM | TGI [16]: > 100 µM | TGI [17]: > 100 µM | TGI [18]: > 100 µM | TGI [19]: > 100 µM | TGI [20]: > 100 µM | TGI [21]: > 100 µM | TGI [22]: > 100 µM | TGI [23]: > 100 µM | TGI [55]: > 100 µM | TGI [24]: > 100 µM | TGI [25]: > 100 µM | TGI [26]: > 100 µM | TGI [27]: > 100 µM | TGI [28]: > 100 µM | TGI [29]: > 100 µM | TGI [30]: > 100 µM | TGI [56]: > 100 µM | TGI [31]: > 100 µM | TGI [32]: > 100 µM | TGI [33]: > 100 µM | TGI [34]: > 100 µM | TGI [35]: > 100 µM | TGI [36]: > 100 µM | TGI [38]: > 100 µM | TGI [39]: > 100 µM | TGI [40]: > 100 µM | TGI [41]: > 100 µM | TGI [42]: > 100 µM | TGI [43]: > 100 µM | TGI [44]: > 100 µM | TGI [57]: > 100 µM | TGI [45]: > 100 µM | TGI [46]: > 100 µM | TGI [47]: > 100 µM | TGI [48]: > 100 µM | TGI [49]: > 100 µM | TGI [50]: > 100 µM | TGI [51]: > 100 µM

Cc1ccc(-c2cc(=O)c3cc(C)c(C)c(C(=O)O)c3o2)cc1[N+](=O)[O-]
TGI [1]: > 100 µM | TGI [3]: > 100 µM | TGI [4]: > 100 µM | TGI [52]: > 100 µM | TGI [5]: > 100 µM | TGI [6]: > 100 µM | TGI [7]: > 100 µM | TGI [53]: > 100 µM | TGI [54]: > 100 µM | TGI [8]: > 100 µM | TGI [10]: > 100 µM | TGI [11]: > 100 µM | TGI [13]: > 100 µM | TGI [16]: > 100 µM | TGI [17]: > 100 µM | TGI [18]: > 100 µM | TGI [19]: > 100 µM | TGI [20]: > 100 µM | TGI [21]: > 100 µM | TGI [22]: > 100 µM | TGI [23]: > 100 µM | TGI [55]: > 100 µM | TGI [24]: > 100 µM | TGI [25]: > 100 µM | TGI [26]: > 100 µM | TGI [27]: > 100 µM | TGI [28]: > 100 µM | TGI [29]: > 100 µM | TGI [30]: > 100 µM | TGI [56]: > 100 µM | TGI [31]: > 100 µM | TGI [32]: > 100 µM | TGI [33]: > 100 µM | TGI [34]: > 100 µM | TGI [35]: > 100 µM | TGI [36]: > 100 µM | TGI [37]: > 100 µM | TGI [38]: > 100 µM | TGI [39]: > 100 µM | TGI [40]: > 100 µM | TGI [41]: > 100 µM | TGI [42]: > 100 µM | TGI [43]: > 100 µM | TGI [44]: > 100 µM | TGI [57]: > 100 µM | TGI [46]: > 100 µM | TGI [47]: > 100 µM | TGI [48]: > 100 µM | TGI [49]: > 100 µM | TGI [50]: > 100 µM | TGI [51]: > 100 µM
